US12503439B2, “Heteroaryl compounds for the treatment of pain” (VERTEX PHARMACEUTICALS INCORPORATED, priority 2022, dated 2025)

Biological target: truncated form of human NaV 1.8 with full channel activity (expressed in HEK cells) (Homo sapiens, UniProt Q9Y5Y9)
Assay: E-VIPR assay detecting and measuring NaV inhibition properties (electrical stimulation, membrane potential FRET dyes)
Assay type: cell-based
Conditions: HEK cells expressing truncated human NaV 1.8, KIR2.1 BacMam; 11-point dose response; 30 min compound incubation; stimulation 10 Hz for 10 s; read-out: measured IC50 value in the E-VIPR Assay
Excerpt: E-VIPR Assay Detecting and Measuring NaV Inhibition Properties
Sodium ion channels are voltage-dependent proteins that can be activated by inducing membrane voltage changes by applying electric fields. […] The instrument comprises a microtiter plate handler, an optical system for exciting the coumarin dye while simultaneously recording the coumarin and oxonol emissions, a waveform generator, a current- or voltage-controlled amplifier, and parallel electrode pairs that are inserted into assay plate wells. Under integrated computer control, this instrument passes user-programmed electrical stimulus protocols to cells within the wells of the microtiter plate.
16-20 hours prior to running the assay on E-VIPR, HEK cells expressing a truncated form of human NaV 1.8 with full channel activity were seeded into microtiter 384-well plates, pre-coated with matrigel, at a density of 25,000 cells per well. 2.5-5% KIR2.1 BacMam virus was added to the final cell suspension before seeding into cell plates. […] Cells were expanded in 5-layer CellSTACK culture chambers or cell culture flasks with vented caps, with 90-95% humidity and 5% CO2.
Reagents and Stock Solutions:
The concentration used can be dependent on viral titer of each batch.
Human Serum (HS, Millipore #S1P1-01KL, or Sigma SLBR5469V and SLBR5470V as a 50%/50% mixture, for 25% assay final concentration)
Hexyl Dye Solution (2× Concentration):
Bath 1 Buffer containing 0.5% β-cyclodextrin (made fresh prior to each use, Sigma #C4767), 8 μM CC2-DMPE and 2 μM DiSBAC6(3). The solution was made by adding 10% Pluronic F127 stock equal to combined volumes of CC2-DMPE and DiSBAC6(3). The order of preparation was first mix Pluronic and CC2-DMPE, then add DiSBAC6(3), then while vortexing add Bath 1/β-Cyclodextrin.
Assay Protocol (7 Key Steps):
The compound plate was backfilled with 45 μL per well of Compound Loading Buffer resulting in a 240-fold dilution of compound following a 1:1 transfer of compound into the cell plate (see Step 6). […] This assay dilution protocol was adjusted to enable a higher dose range to be tested in the presence of HS or if the final assay volume was altered. • 2) Hexyl Dye Solution was prepared. • 3) Cell plates were prepared. On the day of the assay, the media was aspirated, and the cells were washed three times with 80 μL of Bath-1 buffer, maintaining 25 μL residual volume in each well. • 4) 25 μL per well of Hexyl Dye Solution was dispensed into the cell plates. The cells were incubated for 20 minutes at room temperature or ambient conditions in darkness. • 5) 45 μL per well of Compound Loading Buffer was dispensed into compound plates. • 6) The cell plates were washed three times with 80 μL per well of Bath-1 Buffer, leaving […] of residual volume. Then 25 μL per well from compound plate was transferred to each cell plate. The mixture was incubated for 30 minutes at room temperature/ambient conditions. • 7) The cell plate containing compound was read on E-VIPR using the current-controlled amplifier to deliver stimulation wave pulses using a symmetrical biphasic waveform. […] A pre-stimulus recording was performed for each well for 0.5 seconds to obtain the un-stimulated intensities baseline. The stimulatory waveform was followed by 0.5 seconds of post-stimulation recording to examine the relaxation to the resting state. All E-VIPR responses were measured at 200 Hz acquisition rate. Data Analysis:
The response as a function of time was reported as the ratios obtained using the following formula: […]
The data were normalized by calculating the initial (Ri) and final (Rf) ratios. These were the average ratio values during part or all of the pre-stimulation period and during sample points during the stimulation period. The fluorescence ratio (Rf/Ri) was then calculated and reported as a function of time.
Control responses were obtained by performing assays in the presence of the positive control, and in the absence of pharmacological agents (DMSO vehicle negative control).

truncated form of human NaV 1.8 with full channel activity (expressed in HEK cells), sequence (Q9Y5Y9 126-1722 limits assumed): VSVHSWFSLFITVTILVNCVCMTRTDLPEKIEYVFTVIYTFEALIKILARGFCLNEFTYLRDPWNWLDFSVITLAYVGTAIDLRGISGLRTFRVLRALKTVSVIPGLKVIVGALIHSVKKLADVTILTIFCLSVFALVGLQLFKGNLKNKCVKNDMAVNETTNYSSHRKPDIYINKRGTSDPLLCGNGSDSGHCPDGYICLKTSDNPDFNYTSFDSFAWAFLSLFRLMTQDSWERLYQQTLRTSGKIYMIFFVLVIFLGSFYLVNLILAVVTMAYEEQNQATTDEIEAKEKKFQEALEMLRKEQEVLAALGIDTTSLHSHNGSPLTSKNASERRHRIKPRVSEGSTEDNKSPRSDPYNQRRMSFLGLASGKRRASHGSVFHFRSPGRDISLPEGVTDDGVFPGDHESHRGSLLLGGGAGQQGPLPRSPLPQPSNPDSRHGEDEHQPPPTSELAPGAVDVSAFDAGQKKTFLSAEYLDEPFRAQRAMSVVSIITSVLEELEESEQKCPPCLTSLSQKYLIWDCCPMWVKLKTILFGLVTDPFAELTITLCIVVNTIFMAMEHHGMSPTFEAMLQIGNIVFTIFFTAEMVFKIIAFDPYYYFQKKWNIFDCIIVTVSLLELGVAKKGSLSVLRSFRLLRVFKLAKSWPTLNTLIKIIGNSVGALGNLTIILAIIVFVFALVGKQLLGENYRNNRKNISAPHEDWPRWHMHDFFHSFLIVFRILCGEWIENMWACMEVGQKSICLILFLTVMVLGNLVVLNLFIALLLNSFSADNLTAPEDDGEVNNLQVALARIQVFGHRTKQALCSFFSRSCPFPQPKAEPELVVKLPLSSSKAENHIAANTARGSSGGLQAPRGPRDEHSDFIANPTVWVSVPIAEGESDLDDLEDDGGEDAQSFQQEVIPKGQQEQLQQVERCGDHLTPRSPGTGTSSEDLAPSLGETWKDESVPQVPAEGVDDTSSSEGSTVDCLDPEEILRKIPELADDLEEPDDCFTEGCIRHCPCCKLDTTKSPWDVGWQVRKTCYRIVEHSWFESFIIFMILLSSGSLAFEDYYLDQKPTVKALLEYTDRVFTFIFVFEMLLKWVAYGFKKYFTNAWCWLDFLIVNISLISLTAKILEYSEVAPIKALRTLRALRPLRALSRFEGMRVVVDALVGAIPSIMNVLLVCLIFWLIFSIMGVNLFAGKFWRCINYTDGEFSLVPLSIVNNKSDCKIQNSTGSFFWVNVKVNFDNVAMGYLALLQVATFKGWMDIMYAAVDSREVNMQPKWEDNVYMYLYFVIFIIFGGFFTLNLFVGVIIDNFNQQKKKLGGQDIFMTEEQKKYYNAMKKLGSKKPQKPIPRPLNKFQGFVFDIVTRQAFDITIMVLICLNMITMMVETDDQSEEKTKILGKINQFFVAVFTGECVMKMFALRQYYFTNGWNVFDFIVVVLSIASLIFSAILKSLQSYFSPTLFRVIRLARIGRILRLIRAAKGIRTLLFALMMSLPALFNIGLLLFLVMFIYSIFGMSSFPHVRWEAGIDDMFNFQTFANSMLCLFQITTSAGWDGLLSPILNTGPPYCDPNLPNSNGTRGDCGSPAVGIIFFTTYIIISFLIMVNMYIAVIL

Compound	IC50 [µM]
O=c1[nH]c(-c2nc(C(F)(F)F)ccc2N2CCCC(F)(F)CC2)nc2ccccc12 [Compound 153, 2-[3-(4,4-difluoroazepan-1-yl)-6-(trifluoromethyl)-2-pyridyl]-3H-quinazolin-4-one]	≥ 5
COC1CCC(c2cc(C(C)(C)C)ncc2-c2cc(=O)c3c(C(N)=O)nccc3[nH]2)CC1 (stereo not drawn) [Compound 133, 2-[6-tert-butyl-4-(4-methoxycyclohexyl)-3-pyridyl]-4-oxo-1H-1,6-naphthyridine-5-carboxamide]	0.5 to 2
COc1cc(F)ccc1Oc1cc(C(C)(C)C)cc(C)c1-c1[nH]c2ccccc2c(=O)c1Br (single isomer, unassigned) [Compound 320, 3-bromo-2-[4-tert-butyl-2-(4-fluoro-2-methoxy-phenoxy)-6-methyl-phenyl]-1H-quinolin-4-one]	0.5 to 2
C=C(C)c1c(-c2c(C)cc(C(C)(C)C)cc2Oc2ccc(F)cc2OC)[nH]c2ccccc2c1=O (single isomer, unassigned) [Compound 331, 2-[4-tert-butyl-2-(4-fluoro-2-methoxy-phenoxy)-6-methyl-phenyl]-3-isopropenyl-1H-quinolin-4-one]	0.5 to 2
COc1cc(F)ccc1Oc1cc(C(C)(C)C)cc(C)c1-c1[nH]c2ccccc2c(=O)c1Cl (single isomer, unassigned) [Compound 312, 2-[4-tert-butyl-2-(4-fluoro-2-methoxy-phenoxy)-6-methyl-phenyl]-3-chloro-1H-quinolin-4-one]	0.5 to 2
COc1cc(F)ccc1Oc1cc(C(C)(C)C)cc(C)c1-c1nc2cccc(F)c2c(=O)[nH]1 [Compound 38, 2-[4-tert-butyl-2-(4-fluoro-2-methoxy-phenoxy)-6-methyl-phenyl]-5-fluoro-3H-quinazolin-4-one]	0.5 to 2
CCN(c1nc2ccccc2cc1-c1cc(=O)c2c(C(N)=O)nccc2[nH]1)C1CCC1 [Compound 303, 2-[2-[cyclobutyl(ethyl)amino]-3-quinolyl]-4-oxo-1H-1,6-naphthyridine-5-carboxamide]	≥ 5
NC(=O)c1nccc2[nH]c(-c3cc4ccccc4nc3N3CCC(F)(F)C3)cc(=O)c12 [Compound 281, 2-[2-(3,3-difluoropyrrolidin-1-yl)-3-quinolyl]-4-oxo-1H-1,6-naphthyridine-5-carboxamide]	0.5 to 2
Cc1c(Oc2ncc(C(F)(F)F)c(C)c2-c2cc(=O)c3c(N4Cc5cn[nH]c5C4)nccc3[nH]2)ccc(F)c1F [Compound 175, 2-[2-(3,4-difluoro-2-methyl-phenoxy)-4-methyl-5-(trifluoromethyl)-3-pyridyl]-5-(4,6-dihydro-1H-pyrrolo[3,4-c]pyrazol-5-yl)-1H-1,6-naphthyridin-4-one]	0.5 to 2
O=c1cc(-c2ccccc2OCc2ccc(F)cc2)[nH]c2ccccc12 [Compound 6, 2-[2-[(4-fluorophenyl)methoxy]phenyl]-1H-quinolin-4-one]	2 to 5
COc1cc(F)ccc1Oc1cc(C(C)(C)C)cc(C)c1-c1nc(=O)c2ccccc2[nH]1 [Compound 28, 2-[4-tert-butyl-2-(4-fluoro-2-methoxy-phenoxy)-6-methyl-phenyl]-1H-quinazolin-4-one]	0.5 to 2

Further lines, results first:

IC50 [µM]	Compound
0.5 to 2	O=c1cc(-c2ccccc2OCc2cccc(F)c2)[nH]c2ccccc12 [Compound 4, 2-[2-[(3-fluorophenyl)methoxy]phenyl]-1H-quinolin-4-one]
0.5 to 2	N#Cc1nccc2[nH]c(-c3cc4ccccc4nc3N3CCC(F)(F)C3)cc(=O)c12 [Compound 282, 2-[2-(3,3-difluoropyrrolidin-1-yl)-3-quinolyl]-4-oxo-1H-1,6-naphthyridine-5-carbonitrile]
0.5 to 2	NC(=O)c1nccc2[nH]c(-c3cc(F)c(C(F)(F)F)cc3Oc3ccc(F)c(F)c3O)cc(=O)c12 [Compound 347, 2-[2-(3,4-difluoro-2-hydroxy-phenoxy)-5-fluoro-4-(trifluoromethyl)phenyl]-4-oxo-1H-1,6-naphthyridine-5-carboxamide]
0.5 to 2	Cc1c(C(F)(F)F)cnc(Oc2ccc(F)c(F)c2CO)c1-c1cc(=O)c2c(C(N)=O)nccc2[nH]1 [Compound 346, 2-[2-[3,4-difluoro-2-(hydroxymethyl)phenoxy]-4-methyl-5-(trifluoromethyl)-3-pyridyl]-4-oxo-1H-1,6-naphthyridine-5-carboxamide]
0.5 to 2	CC(C)(C)n1cc(-c2cc(=O)c3c(C(N)=O)nccc3[nH]2)c(C2CCC(F)(F)CC2)n1 [Compound 138, 2-[1-tert-butyl-3-(4,4-difluorocyclohexyl)pyrazol-4-yl]-4-oxo-1H-1,6-naphthyridine-5-carboxamide]
0.5 to 2	Cc1c(Oc2ncc(C(F)(F)F)c(C)c2-c2cc(=O)c3c(NC(C)(C)CO)nccc3[nH]2)ccc(F)c1F [Compound 170, 2-[2-(3,4-difluoro-2-methyl-phenoxy)-4-methyl-5-(trifluoromethyl)-3-pyridyl]-5-[(2-hydroxy-1,1-dimethyl-ethyl)amino]-1H-1,6-naphthyridin-4-one]
≥ 5	O=c1cc(-c2ccccc2C2CC2)[nH]c2ccccc12 [Compound 1, 2-(2-cyclopropylphenyl)-1H-quinolin-4-one]
0.5 to 2	Cc1c(Oc2ncc(C(F)(F)F)c(C)c2-c2cc(=O)c3c(N4CC(O)C4)nccc3[nH]2)ccc(F)c1F [Compound 179, 2-[2-(3,4-difluoro-2-methyl-phenoxy)-4-methyl-5-(trifluoromethyl)-3-pyridyl]-5-(3-hydroxyazetidin-1-yl)-1H-1,6-naphthyridin-4-one]
0.5 to 2	O=c1cc(-c2cc(Cl)c(C(F)(F)F)nc2N2CCCC(F)(F)CC2)[nH]c2c(F)cccc12 [Compound 95, 2-[5-chloro-2-(4,4-difluoroazepan-1-yl)-6-(trifluoromethyl)-3-pyridyl]-8-fluoro-1H-quinolin-4-one]
≥ 5	O=c1cc(-c2cc(C(F)(F)F)ncc2[C@H]2CC[C@H](C(F)(F)F)CC2)[nH]c2ccncc12 [Compound 305, 2-[2-(trifluoromethyl)-5-[4-(trifluoromethyl)cyclohexyl]-4-pyridyl]-1H-1,6-naphthyridin-4-one]
≥ 5	Cc1cc(-c2cc(=O)c3c(C)nccc3[nH]2)c(N2CCCC(F)(F)CC2)nc1C(F)(F)F [Compound 193, 2-[2-(4,4-difluoroazepan-1-yl)-5-methyl-6-(trifluoromethyl)-3-pyridyl]-5-methyl-1H-1,6-naphthyridin-4-one]
0.5 to 2	O=c1cc(-c2ccccc2OCc2ccccc2)[nH]c2ccccc12 [Compound 3, 2-(2-benzyloxyphenyl)-1H-quinolin-4-one]
≥ 5	COc1cc(F)ccc1Oc1cc(C(C)(C)C)cc(C)c1-c1cc(=O)n2ccccc2n1 [Compound 37, 2-[4-tert-butyl-2-(4-fluoro-2-methoxy-phenoxy)-6-methyl-phenyl]pyrido[1,2-a]pyrimidin-4-one]
2 to 5	COc1cc(F)ccc1Oc1cc(C(C)(C)C)cc(C)c1-c1[nH]c2ccccc2c(=O)c1C (single isomer, unassigned) [Compound 334, 2-[4-tert-butyl-2-(4-fluoro-2-methoxy-phenoxy)-6-methyl-phenyl]-3-methyl-1H-quinolin-4-one]
≥ 5	O=c1cc(-c2ccccc2OCC2CC2)[nH]c2ccccc12 [Compound 2, 2-[2-(cyclopropylmethoxy)phenyl]-1H-quinolin-4-one]
0.5 to 2	COc1cc(F)ccc1Oc1cc(C(C)(C)C)cc(C)c1-c1cc(=O)c2cccc(C)c2[nH]1 [Compound 32, 2-[4-tert-butyl-2-(4-fluoro-2-methoxy-phenoxy)-6-methyl-phenyl]-8-methyl-1H-quinolin-4-one]
